Measured values: US20240301319A1, “PERFUMING COMPOSITIONS” (FIRMNICH SA, priority 2017, published 2024)

How the values were obtained:
[1] = Odor threshold and odor value of perfuming compounds (Tables 4 to 10)
[2] = Volatility of perfuming compounds (Tables 4 to 10), with top/middle/bottom note type; format: physicochemical
In short: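 Note type follows from air volatility (μg/l): bottom 49–0.1, middle 99–50, top 70,000–100. Compounds are listed within watery, green, fruity, citrus, sweet, gourmand and woody families.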

[3] = Table 4, watery note, equals volatility divided by odor threshold
[4] = Table 4, watery note, top, middle or bottom note
[5] = Table 6, perfuming compounds having a fruity note
[6] = Table 7, citrus note, equals volatility divided by odor threshold
[7] = Table 6, perfuming compounds having a fruity note, note type by volatility
[8] = Table 7, citrus note, top, middle or bottom note
[9] = perfuming compounds having a green note
[10] = note type (Top/Middle/Bottom) by volatility, perfuming compounds having a green note
[11] = Table 10, perfuming compounds having a woody note, note type by volatility
[12] = Table 8, perfuming compounds having a sweet note
[13] = Table 8, perfuming compounds having a sweet note, note type by volatility
[14] = Table 9, perfuming compounds having a gourmand note, note type by volatility

Question: Which results are given for “(1S,4S,9S,10R,13R)-5,5,9,13-tetramethyl-14,16-dioxatetracyclo[11.2.1.0~1,10~.0~4,9~]hexadecane (A) + (1R,4S,9S,10R,13S)-5,5,9,13-tetramethyl-14,16-dioxatetracyclo[11.2.1.0~1,10~.0~4,9~]hexadecane (B)”?
Answer: Odor Threshold (μg/l air) ([1]; Table 4, watery note): 4.36E−04 μg/l air; Odor Value [1, 3]: 1.55E+04; Volatility (μg/l air) ([2]; Table 4, watery note): 6.77 μg/l air; Type [2, 4]: bottom (perfuming compounds having a volatility ranging from 49 to 0.1 μg/l in air are referred to as “bottom notes”)

Question: With O=C1CCCCCCC/C=C/CCCCCCO1 [(10E)-oxacycloheptadec-10-en-2-one] as the molecule, how does the “Odor Threshold” value [1, 5] read?
Answer: 4.77E−04 μg/l air

Question: And the “Odor Value” [1, 5]?
Answer: 1.55E+03

Question: What about the “Odor Threshold (μg/l air)” value ([1]; Table 7, citrus note) of the same molecule?
Answer: 4.77E−04 μg/l air

Question: What about the “Odor Value” [1, 6] of the same molecule?
Answer: 1.55E+03

Question: What about the Volatility [2, 5] of the same molecule?
Answer: 0.74 μg/l air

Question: And the Type [2, 7]?
Answer: Bottom

Question: What about the “Volatility (μg/l air)” value ([2]; Table 7, citrus note) of the same molecule?
Answer: 0.74 μg/l air

Question: What about the Type [2, 8] of the same molecule?
Answer: Bottom

Question: For CCCCCC/C(C=O)=C\c1ccccc1 [(2E)-2-benzylideneoctanal], which “Odor Threshold” value [1, 5] is on record?
Answer: 1.91E−03 μg/l air

Question: What about the “Odor Value” [1, 5] of the same molecule?
Answer: 6.01E+02

Question: And the “Odor Threshold (μg/l air)” value [1, 9]?
Answer: 1.91E−03 μg/l air

Question: And the Volatility [2, 5]?
Answer: 1.15 μg/l air

Question: What about the Type [2, 7] of the same molecule?
Answer: Bottom

Question: And the Type [2, 10]?
Answer: Bottom

Question: And the “Volatility (μg/l air)” value [2, 9]?
Answer: 1.15 μg/l air

Question: For CCOc1ccc2ccccc2c1 [2-ETHOXYNAPHTHALENE], which “Odor Threshold (μg/l air)” value ([1]; Table 7, citrus note) is on record?
Answer: 3.57E−03 μg/l air

Question: And the “Odor Value” [1, 6]?
Answer: 6.35E+03

Question: And the “Volatility (μg/l air)” value ([2]; Table 7, citrus note)?
Answer: 22.67 μg/l air

Question: And the Type [2, 8]?
Answer: Bottom

Question: For CC1=CCC(C(C)C)=CC1 [1-methyl-4-(2-propanyl)-1,4-cyclohexadiene], which “Odor Threshold (μg/l air)” value ([1]; Table 7, citrus note) is on record?
Answer: 1.16E−01 μg/l air

Question: What about the “Odor Value” [1, 6] of the same molecule?
Answer: 3.70E+04

Question: And the “Volatility (μg/l air)” value ([2]; Table 7, citrus note)?
Answer: 4298.67 μg/l air

Question: And the Type [2, 8]?
Answer: Top

Question: Which “Odor Threshold” value [1, 5] does the source give for C/C=C(\C)C(=O)OCc1ccccc1 [BENZYL (E)-2-METHYL-2-BUTENOATE] here?
Answer: 3.07E−04 μg/l air

Question: What about the “Odor Value” [1, 5] of the same molecule?
Answer: 1.11E+05

Question: What about the “Odor Threshold” value ([1]; Table 10, woody note) of the same molecule?
Answer: 3.07E−04 μg/l air

Question: And the Volatility [2, 5]?
Answer: 33.88 μg/l air

Question: And the Type [2, 7]?
Answer: Bottom

Question: What about the Type [2, 11] of the same molecule?
Answer: Bottom

Question: And the Volatility ([2]; Table 10, woody note)?
Answer: 33.88 μg/l air

Question: For C=CCSSCC=C [DIALLYL DISULFIDE], which “Odor Threshold” value [1, 12] is on record?
Answer: 3.98E−05 μg/l air

Question: What about the “Odor Value” [1, 12] of the same molecule?
Answer: 1.38E+08

Question: What about the “Odor Threshold” value ([1]; Table 9, gourmand note) of the same molecule?
Answer: 3.98E−05 μg/l air

Question: And the Volatility [2, 12]?
Answer: 5487.52 μg/l air

Question: And the Type [2, 13]?
Answer: Top

Question: What about the Volatility ([2]; Table 9, gourmand note) of the same molecule?
Answer: 5487.52 μg/l air

Question: What about the Type [2, 14] of the same molecule?
Answer: Top

Question: Which “Odor Threshold” value [1, 5] does the source give for CC1=CCC2C(C1)C1CC2C2(C1)OC2C (racemic) here?
Answer: 9.93E−04 μg/l air

Question: What about the “Odor Value” [1, 5] of the same molecule?
Answer: 3.70E+04

Question: What about the “Odor Threshold (μg/l air)” value [1, 9] of the same molecule?
Answer: 9.93E−04 μg/l air

Question: And the Volatility [2, 5]?
Answer: 36.76 μg/l air

Question: What about the Type [2, 7] of the same molecule?
Answer: Bottom

Question: And the Type [2, 10]?
Answer: Bottom

Question: What about the “Volatility (μg/l air)” value [2, 9] of the same molecule?
Answer: 36.76 μg/l air

Question: With C=CC(C)CC(=O)CC(C)C (racemic) as the molecule, how does the “Odor Threshold (μg/l air)” value ([1]; Table 7, citrus note) read?
Answer: 2.78E−01 μg/l air

Question: And the “Odor Value” [1, 6]?
Answer: 1.51E+04

Question: And the Volatility [2, 5]?
Answer: 4203.89 μg/l air

Question: What about the Type [2, 7] of the same molecule?
Answer: TOP (perfuming compounds having a volatility ranging from 70,000 to 100 μg/l in air are referred to as “top notes”)

Question: What about the “Volatility (μg/l air)” value ([2]; Table 7, citrus note) of the same molecule?
Answer: 4203.89 μg/l air

Question: What about the Type [2, 8] of the same molecule?
Answer: Top

Question: With CC(=O)OCC=C(C)C [3-methyl-2-buten-1-yl acetate] as the molecule, how does the “Odor Threshold (μg/l air)” value [1, 9] read?
Answer: 5.58E−02 μg/l air

Question: What about the Volatility [2, 5] of the same molecule?
Answer: 27705.98 μg/l air

Question: And the Type [2, 7]?
Answer: TOP (perfuming compounds having a volatility ranging from 70,000 to 100 μg/l in air are referred to as “top notes”)

Question: And the Type [2, 10]?
Answer: Top

Question: What about the “Volatility (μg/l air)” value [2, 9] of the same molecule?
Answer: 27705.98 μg/l air

Question: For Cc1ccc2c(c1)CC(C)(CO)C2 (racemic), which “Odor Threshold (μg/l air)” value ([1]; Table 4, watery note) is on record?
Answer: 1.28E−04 μg/l air

Question: And the “Odor Value” [1, 3]?
Answer: 3.79E+04

Question: And the “Volatility (μg/l air)” value ([2]; Table 4, watery note)?
Answer: 4.86 μg/l air

Question: What about the Type [2, 4] of the same molecule?
Answer: bottom (perfuming compounds having a volatility ranging from 49 to 0.1 μg/l in air are referred to as “bottom notes”)

Question: What does the source list for O=C(Cc1ccccc1)OCCc1ccccc1 [2-PHENYLETHYL PHENYLACETATE]?
Answer: Odor Threshold [1, 5]: 9.08E−04 μg/l air; Odor Value [1, 5]: 2.24E+02; Odor Threshold (μg/l air) ([1]; Table 7, citrus note): 9.08E−04 μg/l air; Odor Value [1, 6]: 2.24E+02; Odor Threshold [1, 12]: 9.08E−04 μg/l air; Odor Value [1, 12]: 2.24E+02; Odor Threshold ([1]; Table 9, gourmand note): 9.08E−04 μg/l air; Volatility [2, 5]: 0.20 μg/l air; Type [2, 7]: Bottom; Volatility (μg/l air) ([2]; Table 7, citrus note): 0.20 μg/l air; Type [2, 8]: Bottom; Volatility [2, 12]: 0.20 μg/l air; Type [2, 13]: Bottom; Volatility ([2]; Table 9, gourmand note): 0.20 μg/l air; Type [2, 14]: Bottom

Question: With CC1CC(C)(c2ccccc2)CO1 (racemic) as the molecule, how does the “Odor Threshold (μg/l air)” value [1, 9] read?
Answer: 5.04E−04 μg/l air

Question: What about the Volatility [2, 5] of the same molecule?
Answer: 263.73 μg/l air

Question: And the Type [2, 7]?
Answer: TOP (perfuming compounds having a volatility ranging from 70,000 to 100 μg/l in air are referred to as “top notes”)

Question: What about the Type [2, 10] of the same molecule?
Answer: Top

Question: What about the “Volatility (μg/l air)” value [2, 9] of the same molecule?
Answer: 263.73 μg/l air

Question: With CCCCCC1CCCC1=O (racemic) [(+−)-2-pentylcyclopentanone] as the molecule, how does the “Odor Threshold” value [1, 12] read?
Answer: 1.28E−03 μg/l air

Question: What about the “Odor Value” [1, 12] of the same molecule?
Answer: 4.38E+05

Question: What about the “Odor Threshold” value ([1]; Table 9, gourmand note) of the same molecule?
Answer: 1.28E−03 μg/l air

Question: And the Volatility [2, 5]?
Answer: 560.22 μg/l air

Question: What about the Type [2, 7] of the same molecule?
Answer: TOP (perfuming compounds having a volatility ranging from 70,000 to 100 μg/l in air are referred to as “top notes”)

Question: What about the Volatility [2, 12] of the same molecule?
Answer: 560.22 μg/l air

Question: And the Type [2, 13]?
Answer: Top

Question: And the Volatility ([2]; Table 9, gourmand note)?
Answer: 560.22 μg/l air

Question: And the Type [2, 14]?
Answer: Top

Question: What does the source list for “TRICYCLO[5.2.1.0(2,6)]DEC-3-EN-8-YL PROPANOATE (A) + TRICYCLO[5.2.1.0(2,6)]DEC-4-EN-8-YL PROPANOATE (B)”?
Answer: Odor Threshold (μg/l air) ([1]; Table 7, citrus note): 2.44E−04 μg/l air; Odor Value [1, 6]: 1.47E+05; Volatility (μg/l air) ([2]; Table 7, citrus note): 35.82 μg/l air; Type [2, 8]: Bottom

Question: Which “Odor Threshold (μg/l air)” value ([1]; Table 4, watery note) does the source give for CC/C=C\CC/C=C/CO [(2E,6Z)-2,6-NONADIEN-1-OL] here?
Answer: 3.22E−06 μg/l air

Question: What about the “Odor Value” [1, 3] of the same molecule?
Answer: 3.07E+07

Question: What about the “Odor Threshold (μg/l air)” value [1, 9] of the same molecule?
Answer: 3.22E−06 μg/l air

Question: And the “Volatility (μg/l air)” value ([2]; Table 4, watery note)?
Answer: 98.76 μg/l air

Question: And the Type [2, 4]?
Answer: middle (perfuming compounds having a volatility ranging from 99 to 50 μg/l in air are referred to as “middle notes”)

Question: What about the Type [2, 10] of the same molecule?
Answer: Middle

Question: And the “Volatility (μg/l air)” value [2, 9]?
Answer: 98.76 μg/l air

Question: Which results are given for CCOCOC1CCCCCCCCCCC1 [(ETHOXYMETHOXY)CYCLODODECANE]?
Answer: Odor Threshold ([1]; Table 10, woody note): 8.90E−02 μg/l air; Type [2, 11]: Bottom; Volatility ([2]; Table 10, woody note): 6.63 μg/l air

Question: Which results are given for Cc1ncsc1CCO [2-(4-METHYL-1,3-THIAZOL-5-YL)-1-ETHANOL]?
Answer: Odor Threshold [1, 12]: 2.43E−04 μg/l air; Odor Value [1, 12]: 9.71E+03; Volatility [2, 12]: 2.36 μg/l air; Type [2, 13]: Bottom

Question: Which results are given for COC(=O)C1C(C)=CCCC1(C)C (racemic)?
Answer: Odor Threshold (μg/l air) [1, 9]: 1.06E−02 μg/l air; Type [2, 10]: Top; Volatility (μg/l air) [2, 9]: 2010.91 μg/l air

Question: Which “Odor Threshold (μg/l air)” value ([1]; Table 4, watery note) does the source give for “(+−)-3-(4-methyl-3-penten-1-yl)-3-cyclohexene-1-carbaldehyde (A) + (+−)-4-(4-methyl-3-penten-1-yl)-3-cyclohexene-1-carbaldehyde (B)” here?
Answer: 3.68E−03 μg/l air

Question: And the “Odor Value” [1, 3]?
Answer: 5.85E+03

Question: And the “Volatility (μg/l air)” value ([2]; Table 4, watery note)?
Answer: 21.54 μg/l air

Question: What about the Type [2, 4] of the same molecule?
Answer: bottom (perfuming compounds having a volatility ranging from 49 to 0.1 μg/l in air are referred to as “bottom notes”)

Question: What does the source list for C/C=C/C(=O)C1=C(C)CCCC1(C)C?
Answer: Odor Threshold [1, 5]: 2.18E−04 μg/l air; Odor Value [1, 5]: 3.75E+05; Odor Threshold ([1]; Table 10, woody note): 2.18E−04 μg/l air; Volatility [2, 5]: 81.66 μg/l air; Type [2, 7]: Middle; Type [2, 11]: Middle; Volatility ([2]; Table 10, woody note): 81.66 μg/l air
